Measurements: patent publication US4771070A (Warner-Lambert Company, priority 1986, dated 1988)
Converted amounts (≈) assume the structure as drawn. Where a name gives a salt, the structure may show the parent alone. Read-outs that look alike come from different tables or passages of the source.

What was measured:
[1] = format: physicochemical
Procedure: After addition of the base solution, a white suspension formed, and some material coagulated on the walls of the solution container.
The resulting solution was concentrated to a final volume of about 2 ml on a rotary evaporator and then diluted to 40 ml with water. Two-milliliter aliquots of this solution were added to each of several 6-ml vials.
The solution was concentrated in vacuo to remove methanol and diluted to 10 ml for lyophilization. The lyophilized solid is white and powdery.

[2] = system: Alcaligenes viscolactis; assay: Antimicrobial activity of CL-1957A, paper disc growth inhibition zone; format: cell-based; conditions: ATCC21698, 16 h, ATCC 21698, Mycin medium, 500 μg/ml, read-out: Diameter of Inhibition Zone
Procedure: (§1) The disc and inoculated medium were incubated for 16 hours at 37° C. and the diameter of the resulting growth inhibition zone, if any, was measured.

[3] = system: Bacillus subtilis; assay: as above; format: cell-based
Procedure: as §1

[4] = system: Xanthomonas phaseoli; assay: as above; format: cell-based; conditions: 16 h, PD 06002, CMA medium, read-out: Diameter of Inhibition Zone
Procedure: as §1

[5] = system: Branhamella catarrahalis; assay: as above; format: cell-based; conditions: 16 h; PD 03596, CAP medium, 500 μg/ml; read-out: Diameter of Inhibition Zone
Procedure: as §1

[6] = system: Micrococcus luteus; assay: as above; format: cell-based; conditions: 16 h, PD 05064, PAS medium, read-out: Diameter of Inhibition Zone
Procedure: as §1

[7] = system: Proteus vulgaris; assay: as above; format: cell-based; conditions: 16 h, PD 05062, PAS medium, read-out: Diameter of Inhibition Zone
Procedure: as §1

[8] = system: Staphylococcus aureus; assay: as above; format: cell-based; conditions: 16 h, read-out: Diameter of Inhibition Zone; for zone of inhibition at 10 µg/mL: 10 μg/ml; for zone of inhibition at 500 µg/mL: 500 μg/ml; for zone of inhibition at 100 µg/mL: 100 μg/ml
Procedure: as §1

[9] = system: B16 Melanoma; assay: In vivo activity of CL-1957A against B16 Melanoma in mice; conditions: ratio of median life span
Text: The activity of the compound against B16 melanoma is presented in Table XIV in terms of % T/C values which represents the ratio of median life span in days of treated mice to untreated mice, expressed as a percentage.

[10] = system: L1210 mouse leukemia cells; assay: Cytotoxicity of CL-1957A in vitro; format: cell-based; conditions: read-out: ID50 (the source's name)
Text: (§2) The ID50 values appear in Table XII.

[11] = system: human colon adenocarcinoma cells; assay: Cytotoxicity of CL-1957A in vitro; format: cell-based; conditions: read-out: ID50 (the source's name)
Text: as §2

[12] = system: P388 leukemia; assay: In vivo activity of CL-1957A against P388 leukemia in mice
[13] = format: physicochemical; conditions: for Percent Remaining After One Week: 168 h
Procedure: The thin-film preparations which resulted were assayed for stability by comparing the purity of the film against a standard sample by HPLC techniques.

[14] = system: Ridgeway Osteogenic Sarcoma; assay: In vivo activity of CL-1957A against Ridgeway Osteogenic Sarcoma in mice
Procedure: Male AKR mice were pooled, inoculated subcutaneously by trocar with 30-60 mg fragments of Ridgeway Osteogenic Sarcoma, repooled, and randomly distributed to treatment groups on Day 0.
Appropriate mice received intrapertioneal injections of the test compound dissolved in 0.9% sodium chloride solution on Days 2, 6, and 10, and then weekly thereafter. Tumors were measured on Days 24 and 35. The results are presented in Table XIII as % T/C (as defined below). % T/C values of less than 40 on Day 35 are considered active. [formula]

[15] = physchem; format: physicochemical

SMILES: CCC(C=CC1OC(=O)C=CC1C)=CC(C)CC=CC(C)=CC(C)C(=O)C(C)C(O)C(C)CC(C)=CC(=O)O (stereo not drawn) [CL-1957A triethylammonium salt]
- solubility in water [1]: soluble in water

SMILES: CCC(C=CC1OC(=O)C=CC1C)=CC(C)CC=CC(C)=CC(C)C(=O)C(C)C(O)C(C)CC(C)=CC(=O)O (stereo not drawn) [CL-1957A, 19-(3,6-dihydro-3-methyl-6-oxo-2H-pyran-2-yl)-17-ethyl-6-hydroxy-3,5,7,9, 11,15-hexamethyl-8-oxo 2,10,12 16,18-nonadecapentaenoic acid]
- zone of inhibition at 500 µg/mL [2]: 19 mm
- zone of inhibition at 10 µg/mL ([3]; 16 h, PD 04969, #169 medium, 10 μg/ml, read-out: Diameter of Inhibition Zone): 0 mm
- zone of inhibition at 100 µg/mL ([3]; ATCC6633, 16 h, read-out: Diameter of Inhibition Zone, ATCC 6633, #169 medium, 100 μg/ml): 16 mm
- zone of inhibition at 10 µg/mL ([3]; ATCC6633, 16 h, read-out: Diameter of Inhibition Zone, ATCC 6633, Mycin medium, 10 μg/ml): 0 mm
- zone of inhibition at 100 µg/mL ([3]; ATCC6633, 16 h, read-out: Diameter of Inhibition Zone, ATCC 6633, Mycin medium, 100 μg/ml): 0 mm
- zone of inhibition at 10 µg/mL ([4]; 10 μg/ml): 0 mm
- zone of inhibition at 100 µg/mL ([4]; 100 μg/ml): 0 mm
- zone of inhibition at 500 µg/mL ([4]; 500 μg/ml): 0 mm
- zone of inhibition at 500 µg/mL [5]: 30 mm
- zone of inhibition at 10 µg/mL ([6]; 10 μg/ml): 0 mm
- zone of inhibition at 100 µg/mL ([6]; 100 μg/ml): 0 mm
- zone of inhibition at 10 µg/mL ([7]; 10 μg/ml): 0 mm
- zone of inhibition at 100 µg/mL ([7]; 100 μg/ml): 0 mm
- zone of inhibition at 500 µg/mL ([7]; 500 μg/ml): 0 mm
- zone of inhibition at 10 µg/mL ([8]; PD 02482, PAS medium): 0 mm
- zone of inhibition at 500 µg/mL ([8]; PD 02482, PAS medium): 16 mm
- zone of inhibition at 10 µg/mL ([8]; PD 5045, AM-9 medium): 0 mm
- zone of inhibition at 100 µg/mL ([8]; PD 5045, AM-9 medium): 17 mm
- zone of inhibition at 500 µg/mL ([8]; PD 5045, AM-9 medium): 22 mm
- zone of inhibition at 10 µg/mL ([8]; PD 5045, AM-10 medium): 0 mm
- zone of inhibition at 100 µg/mL ([8]; PD 5045, AM-10 medium): 19 mm
- zone of inhibition at 500 µg/mL ([8]; PD 5045, AM-10 medium): 22 mm
- % T/C ([9]; 0.075 mg/kg/injection i.p. Days 1, 5, 9): 201%
- % T/C ([9]; 0.60 mg/kg/injection i.p. Days 1, 5, 9): Toxic
- IC50 [10]: 0.118 ng/mL (≈ 0.218 nM)
- IC50 [11]: 0.02 ng/mL (≈ 0.037 nM)
- % T/C ([12]; 12.5 μg/kg/injection, Days 1-5, Test 1): 118%
- % T/C ([12]; 25 μg/kg/injection, Days 1-5, Test 1): 127%
- % T/C ([12]; 100 μg/kg/injection, Days 1-5, Test 1): Toxic
- % T/C ([12]; 100 μg/kg/injection, Days 1-5, Test 2): Toxic
- stability of ascorbate-containing thin-film preparation [13]: began to show some decomposition
- stability of solid preparations of the pure compound [13]: insufficiently stable for pharmaceutical use
- stability of thin-film preparations [13]: not stable for periods of even one week
- Percent Remaining After One Week ([13]; solid cake from 1,1-dimethylethanol): 56%
- Percent Remaining After One Week ([13]; thin film from 95% ethanol): 40%
- Percent Remaining After One Week ([13]; thin film from abs. ethanol): 60%
- % T/C ([14]; 0.125 mg/kg/injection i.p. Days 2, 6, 10, then weekly, Day 24): 14%
- % T/C ([14]; 0.125 mg/kg/injection i.p. Days 2, 6, 10, then weekly, Day 35, less than 40 considered active): 22%
- % T/C ([14]; 0.25 mg/kg/injection i.p. Days 2, 6, 10, then weekly, Day 24): 15%
- % T/C ([14]; 0.25 mg/kg/injection i.p. Days 2, 6, 10, then weekly, Day 35, less than 40 considered active): 9%
- % T/C ([14]; 0.50 mg/kg/injection i.p. Days 2, 6, 10, then weekly, Day 24): 0%
- % T/C ([14]; 0.50 mg/kg/injection i.p. Days 2, 6, 10, then weekly, Day 35, less than 40 considered active): 0%
- remaining at 730 h ([15]; 95% ethanol): 100%
- remaining at 3650 h ([15]; 95% ethanol): 100%
- remaining at 3650 h ([15]; abs. ethanol): 100%
- remaining at 730 h ([15]; absolute ethanol): 100%
- remaining at 730 h ([15]; dimethylacetamide): 95%
- remaining at 730 h ([15]; dimethylsulfoxide): 93%
- remaining at 730 h ([15]; propylene glycol): 100%
- remaining at 3650 h ([15]; propylene glycol): 100%

SMILES: CCC(C=CC1OC(=O)C=CC1C)=CC(C)CC=CC(C)=CC(C)C(=O)C(C)C(O)C(C)CC(C)=CC(=O)O [N-methyl-D-glucamine salt]
- solubility in water [1]: soluble in water

SMILES: CCC(C=CC1OC(=O)C=CC1C)=CC(C)CC=CC(C)=CC(C)C(=O)C(C)C(O)C(C)CC(C)=CC(=O)O (stereo not drawn) [calcium salt of CL-1957A]
- solubility in ethanol [1]: soluble in ethanol
- solubility in water [1]: insoluble in water
